Data taken from patent publication US10590166B2, “Peptides useable for treating cancer” (Allegro Pharmaceuticals, LLC, priority 2009, dated 2020).

What was measured:
New Zealand Rabbits = assay: Ocular toxicity of intravitreal Compound 1 with and without urea (Table A); format: in vivo; conditions: single intravitreal injection, 24 hour follow up, 8 eyes per group
[1] = system: human umbilical vein endothelial cells (HUVEC); assay: wound-healing assay with HUVEC on fibronectin coated surface; format: cell-based
Protocol: To test the anti-adhesive properties of RGCysteic Acid peptides in vitro, a wound-healing assay was performed with human umbilical vein endothelial cells (HUVEC). HUVEC were seeded and allowed to grow to a confluent monolayer on a fibronectin coated surface. A wound (a scratch rift) was created by dragging a small pipette tip across the HUVEC monolayer. The cells were then incubated in fresh growth medium containing the RGCysteic Acid peptide (Compound 1; 10 mM), and the wound area was imaged in five different fields at various time points (0, 4, 8, 12, 16, 20, 24 hours) to determine the kinetics of wound closure. The level of wound closure was quantified by determining the fraction of the original wound area that was re-occupied by HUVEC through cellular adhesion, migration and proliferation.
In control studies, the following peptides were used in place of RGCysteic Acid (Compound 1): cyclic-RGD peptide (1 mM), positive control) and RGE peptide (1 mM, negative control).
The results are shown as a percentage of the original area. The error bars correspond to the standard deviation in wound size across 2-6 independent trials.

rho/VEGF mice = assay: Subretinal neovascularization in transgenic rho/VEGF mice expressing human VEGF; format: in vivo; conditions: 10 μg, single intraocular injection, seven days post-dose, 3 animals
Protocol: Transgenic mice in which the rhodopsin promoter drives expression of human VEGF in photoreceptors (rho/VEGF mice) were randomized into separate treatment groups and studies were performed to provide the following comparisons:
Pretreatment measurements of the area of subretinal neovascularization were made on each animal using image analysis by a masked observer. Each animal received its designated treatment in a single intraocular injection. Seven days post-dose, measurements of the area of subretinal neovascularization were again made and compared to the pre-dose measurements to determine the change in subretinal neovascularization area. Also, the animals were sacrificed and the retinas were dissected, immunostained with GSA lectin and examined by fluorescence microscopy.

NC(N)=O [12% Urea solution, Urea, reference compound]
Total PVD (New Zealand Rabbits): 0% Total PVD
Vitreous liquefaction (New Zealand Rabbits): No liquefaction

CC(C)[C@H]1C(=O)N[C@@H](CCCN=C(N)N)C(=O)NCC(=O)N[C@@H](CC(=O)O)C(=O)N[C@H](Cc2ccccc2)C(=O)N1C [Cyclic RGD, N-methylated cyclic-RGDf-N(Me)V, reference compound]
inhibition of cell adhesion ([1]; HUVEC wound healing model, in 12 hours): 40%
inhibition of HUVEC wound healing ([1]; after 24 hours, Compound 1 10 mM, control peptides 1 mM): 45%

B1: ranibizumab: recombinant humanized IgG1 kappa isotype monoclonal antibody fragment (antibody, chains of the INN, looked up, V domains shown)
VH: EVQLVESGGGLVQPGGSLRLSCAASGYDFTHYGMNWVRQAPGKGLEWVGWINTYTGEPTYAADFKRRFTFSLDTSKSTAYLQMNSLRAEDTAVYYCAKYPYYYGTSHWYFDVWGQGTLVTVSS
VL: DIQLTQSPSSLSASVGDRVTITCSASQDISNYLNWYQQKPGKAPKVLIYFTSSLHSGVPSRFSGSGSGTDFTLTISSLQPEDFATYYCQQYSTVPWTFGQGTKVEIK
modifications: Fab
notes: recombinant humanized IgG1 kappa isotype monoclonal antibody fragment
greater reduction in subretinal neovascularization area than control animals (Phosphate Buffered Saline) (rho/VEGF mice): 38.96%
